Active and inactive are the calls of the source. The rule behind the calls is not given here.
Experiments:
[1] = tested on: Hepatitis B virus; assay: Antiviral activity against Hepatitis B virus infected in human HepG2.2.15 cells assessed as reduction in HBsAg level measured after 4 days by AlphaLisa assay; type: functional, organism-based; conditions: HepG2.2.15, 96 h
[2] = Cytotoxicity against human HepG2.2.15 cells assessed as reduction in cell viability measured after 4 days by CellTiter-Glo reagent based assay; parameters: species or system HepG2 2.2.15; conditions: time 4 day
[3] = 1-Octanol/saturated PBS buffer distribution coefficient, logD of the compound incubated for 1 hr by LC-MS/MS analysis; type: physicochemical
[4] = Apparent permeability across apical to basolateral side in MDCK-MDR1 cells at 1 uM measured after 120 mins by LC-MS/MS analysis; type: ADME, cell-based, Canis lupus familiaris; conditions: dog
[5] = target: T1, Solute carrier organic anion transporter family member 1B1 (Homo sapiens, UniProt Q9Y6L6); assay: Substrate activity at OATP1B1 (unknown origin) expressed in HEK293 cells assessed as ratio of drug uptake in absence of transporter inhibitor,estradiol-17beta-glucuronide to drug uptake in presence of transporter inhibitor, estradiol-17beta-glucuronide by LC-MS/MS analysis; type: ADME, cell-based
T1 sequence (Q9Y6L6 whole entry): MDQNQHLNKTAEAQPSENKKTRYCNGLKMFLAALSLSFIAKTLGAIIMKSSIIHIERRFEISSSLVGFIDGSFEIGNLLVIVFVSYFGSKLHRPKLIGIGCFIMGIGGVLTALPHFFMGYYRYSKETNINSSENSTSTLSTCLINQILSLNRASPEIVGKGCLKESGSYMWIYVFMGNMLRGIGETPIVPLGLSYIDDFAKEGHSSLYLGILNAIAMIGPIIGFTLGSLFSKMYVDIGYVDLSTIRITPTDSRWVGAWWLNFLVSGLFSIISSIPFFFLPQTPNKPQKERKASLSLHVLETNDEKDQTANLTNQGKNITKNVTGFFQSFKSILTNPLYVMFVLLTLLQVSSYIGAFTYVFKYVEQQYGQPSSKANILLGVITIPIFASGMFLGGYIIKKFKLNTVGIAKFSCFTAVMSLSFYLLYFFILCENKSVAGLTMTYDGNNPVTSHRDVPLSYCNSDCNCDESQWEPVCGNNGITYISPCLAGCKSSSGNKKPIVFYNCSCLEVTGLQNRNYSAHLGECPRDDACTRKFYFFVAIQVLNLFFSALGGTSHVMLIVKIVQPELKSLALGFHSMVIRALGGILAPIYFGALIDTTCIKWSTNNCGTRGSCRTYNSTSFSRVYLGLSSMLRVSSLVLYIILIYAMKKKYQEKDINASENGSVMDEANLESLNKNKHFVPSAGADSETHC

[6] = Efflux ratio of apparent permeability in MDCK-MDR1 cells at 1 uM after 120 mins by LC-MS/MS analysis; type: ADME, cell-based, Canis lupus familiaris; conditions: dog
[7] = tested on: OATP1B3; assay: Ratio of drug uptake in HEK293 cells transfected with OATP1B3 (unknown origin) in absence of transporter inhibitor, estradiol-17beta-glucuronide to drug uptake in HEK293 cells in absence of transporter inhibitor, estradiol-17beta-glucuronide by LC-MS/MS analysis; type: ADME, cell-based; conditions: human, HEK293 cells transfected with OATP1B3 versus HEK293 cells
[8] = target: Terminal nucleotidyltransferase 4A (Homo sapiens) (UniProt Q5XG87); assay: Inhibition of human PAPD7 expressed in HEK293 cells assessed as inhibition of poly-adenylation reaction using P32-labeled RNA oligonucleotides (5'-GCCUUUCAUCUCUAACUGCGAAAAAAAAAA-3') as substrate measured for 3 hrs by phosphor imaging analysis; type: cell-based; conditions: dose 0.37-10 µM
Chain of Terminal nucleotidyltransferase 4A (Homo sapiens) (Q5XG87 whole entry): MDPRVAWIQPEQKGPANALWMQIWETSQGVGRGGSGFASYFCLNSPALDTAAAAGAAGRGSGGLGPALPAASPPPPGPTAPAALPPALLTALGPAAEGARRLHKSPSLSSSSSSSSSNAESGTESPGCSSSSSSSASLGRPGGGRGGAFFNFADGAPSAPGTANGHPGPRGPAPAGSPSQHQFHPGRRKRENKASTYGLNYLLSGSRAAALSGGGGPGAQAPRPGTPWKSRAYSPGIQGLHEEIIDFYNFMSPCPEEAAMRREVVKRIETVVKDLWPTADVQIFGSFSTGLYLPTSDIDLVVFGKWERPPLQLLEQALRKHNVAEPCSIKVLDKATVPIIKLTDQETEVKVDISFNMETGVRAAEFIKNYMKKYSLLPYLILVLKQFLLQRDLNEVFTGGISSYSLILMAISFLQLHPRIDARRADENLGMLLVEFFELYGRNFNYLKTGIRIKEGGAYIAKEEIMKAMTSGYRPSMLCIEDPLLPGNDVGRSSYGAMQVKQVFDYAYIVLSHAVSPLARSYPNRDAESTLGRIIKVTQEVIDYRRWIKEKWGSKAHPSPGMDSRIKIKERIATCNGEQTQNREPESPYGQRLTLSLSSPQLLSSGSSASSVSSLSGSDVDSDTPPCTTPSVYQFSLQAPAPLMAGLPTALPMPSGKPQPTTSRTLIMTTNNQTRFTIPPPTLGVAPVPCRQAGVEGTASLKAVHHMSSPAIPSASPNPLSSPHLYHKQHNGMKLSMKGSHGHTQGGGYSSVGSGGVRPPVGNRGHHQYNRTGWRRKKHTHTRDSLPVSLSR

[9] = tested on: Hepatitis B virus; assay: Antiviral activity against Hepatitis B virus infected in human HepG2.2.15 cells assessed as reduction in HBV subgenomic 2.4/2.1 kb mRNA level at 1 uM measured after 5 days by Northern blot analysis; type: functional, organism-based; conditions: time 5.0 day
[10] = tested on: OATP1B1; assay: Ratio of drug uptake in HEK293 cells transfected with OATP1B1 (unknown origin) in absence of transporter inhibitor, estradiol-17beta-glucuronide to drug uptake in HEK293 cells in absence of transporter inhibitor, estradiol-17beta-glucuronide by LC-MS/MS analysis; type: ADME, cell-based; conditions: human, HEK293 cells transfected with OATP1B1 versus HEK293 cells
[11] = Apparent permeability across basolateral to apical side in MDCK-MDR1 cells at 1 uM measured after 120 mins by LC-MS/MS analysis; type: ADME, cell-based, Canis lupus familiaris; conditions: dog
[12] = target: T2, Solute carrier organic anion transporter family member 1B3 (Homo sapiens, UniProt Q9NPD5); assay: Substrate activity at OATP1B3 (unknown origin) expressed in HEK293 cells assessed as ratio of drug uptake in absence of transporter inhibitor, estradiol-17beta-glucuronide to drug uptake in presence of transporter inhibitor, estradiol-17beta-glucuronide by LC-MS/MS analysis; type: ADME, cell-based
T2 sequence (Q9NPD5 whole entry): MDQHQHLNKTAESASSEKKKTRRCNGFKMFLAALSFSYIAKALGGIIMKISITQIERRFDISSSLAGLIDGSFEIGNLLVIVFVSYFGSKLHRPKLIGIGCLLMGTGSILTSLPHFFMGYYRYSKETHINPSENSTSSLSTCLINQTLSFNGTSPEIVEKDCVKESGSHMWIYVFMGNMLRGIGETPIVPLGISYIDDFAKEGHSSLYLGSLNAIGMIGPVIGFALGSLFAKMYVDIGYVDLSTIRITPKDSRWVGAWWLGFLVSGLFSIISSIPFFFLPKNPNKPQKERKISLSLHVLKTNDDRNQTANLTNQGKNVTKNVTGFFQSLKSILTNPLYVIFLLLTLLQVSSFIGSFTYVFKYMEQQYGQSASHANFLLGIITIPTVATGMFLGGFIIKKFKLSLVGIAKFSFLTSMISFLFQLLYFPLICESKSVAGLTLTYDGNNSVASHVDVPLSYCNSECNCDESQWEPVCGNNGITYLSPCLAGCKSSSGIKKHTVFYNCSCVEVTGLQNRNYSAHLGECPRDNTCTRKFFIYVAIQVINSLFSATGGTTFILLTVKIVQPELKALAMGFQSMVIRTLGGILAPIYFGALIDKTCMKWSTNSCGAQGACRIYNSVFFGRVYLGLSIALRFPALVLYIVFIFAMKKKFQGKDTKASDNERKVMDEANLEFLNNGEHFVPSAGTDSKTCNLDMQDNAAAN

[13] = tested on: Hepatitis B virus; assay: Antiviral activity against Hepatitis B virus infected in human HepG2.2.15 cells assessed as reduction in HBV pregenomic mRNA level at 1 uM measured after 5 days by Northern blot analysis; type: functional, organism-based; conditions: time 5.0 day
[14] = target: Terminal nucleotidyltransferase 4B (Homo sapiens) (UniProt Q8NDF8); assay: Inhibition of Myc-DDK-tagged human PAPD5 expressed in HEK293 cells assessed as inhibition of poly-adenylation reaction using P32-labeled RNA oligonucleotides (5'-GCCUUUCAUCUCUAACUGCGAAAAAAAAAA-3') as substrate measured for 20 mins by phosphor imaging analysis; conditions: dose 0.37-10 µM
Chain of Terminal nucleotidyltransferase 4B (Homo sapiens) (Q8NDF8 whole entry): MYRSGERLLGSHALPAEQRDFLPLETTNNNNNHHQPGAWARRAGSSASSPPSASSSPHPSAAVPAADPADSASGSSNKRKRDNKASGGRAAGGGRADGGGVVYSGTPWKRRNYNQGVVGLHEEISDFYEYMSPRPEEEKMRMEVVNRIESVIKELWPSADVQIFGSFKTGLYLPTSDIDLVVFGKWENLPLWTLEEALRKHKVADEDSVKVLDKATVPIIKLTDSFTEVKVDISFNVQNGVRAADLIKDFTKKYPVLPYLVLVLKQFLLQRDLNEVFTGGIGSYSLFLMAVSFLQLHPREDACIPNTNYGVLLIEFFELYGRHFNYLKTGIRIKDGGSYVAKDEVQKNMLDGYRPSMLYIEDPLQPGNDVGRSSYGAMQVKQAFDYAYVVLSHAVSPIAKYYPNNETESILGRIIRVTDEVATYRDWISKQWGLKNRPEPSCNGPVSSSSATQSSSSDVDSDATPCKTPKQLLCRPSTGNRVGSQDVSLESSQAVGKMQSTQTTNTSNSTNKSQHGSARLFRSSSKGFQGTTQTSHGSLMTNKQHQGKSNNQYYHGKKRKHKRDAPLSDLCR

| SMILES | EC50 [1] [µM] | CC50 at 96 h [2] [µM] | logD at 1 h [3] | other results |
| --- | --- | --- | --- | --- |
| COc1cc2c(cc1OCCCCCC(=O)O)C[C@@H](C(C)C)n1cc(C(=O)O)c(=O)cc1-2 | 0.087 | > 10 |  |  |
| COc1cc2c(cc1OCC(=O)O)C[C@@H](C(C)C)n1cc(C(=O)O)c(=O)cc1-2 | > 10 | > 10 |  |  |
| COc1cc2c(cc1OCCCC(=O)O)C[C@@H](C(C)C)n1cc(C(=O)O)c(=O)cc1-2 | 1.01 | > 10 |  |  |
| COc1cc2c(cc1OCCCOCC(=O)O)C[C@@H](C(C)C)n1cc(C(=O)O)c(=O)cc1-2 | 2.78 | > 10 |  |  |
| COc1cc2c(cc1OCCCCC(=O)O)C[C@@H](C(C)C)n1cc(C(=O)O)c(=O)cc1-2 | 0.38 | > 10 |  |  |
| COc1cc2c(cc1OCCCCCCCCC(=O)O)C[C@@H](C(C)C)n1cc(C(=O)O)c(=O)cc1-2 | 0.0046 | > 10 | 0.7 |  |
| COc1cc2c(cc1OCCCCCCCC(=O)O)C[C@@H](C(C)C)n1cc(C(=O)O)c(=O)cc1-2 | 0.0076 | > 10 | 0.07 |  |
| COCCCOc1cc2c(cc1OC)-c1cc(=O)c(C(=O)O)cn1[C@H](C(C)C)C2 | 0.0018 | > 10 | 1.39 | Papp A→B at 2 h, 1 µM [4]: 9.17 ×10⁻⁶ cm/s; Ratio [5]: 0.38; efflux ratio at 2 h, 1 µM [6]: 3.9; uptake ratio [7]: 0.56; inhibition [8]: Dose-Dependent Effect; Activity [9]: Active; uptake ratio [10]: 0.71; Papp B→A at 2 h, 1 µM [11]: 35.8 ×10⁻⁶ cm/s; Ratio [12]: 0.42; Activity [13]: Active; inhibition [14]: Dose-Dependent Effect |

From ChEMBL document CHEMBL4808208, “Hepatoselective Dihydroquinolizinone Bis-acids for HBsAg mRNA Degradation” (ACS Med Chem Lett, 2021)
